Results published in ChEMBL document CHEMBL1201862, “PubChem BioAssay data set” (2004).
The source made the active and inactive calls.

Legend:
Mu-type opioid receptor = Mu-type opioid receptor (Homo sapiens, UniProt P35372); test: SAR Analysis of Antagonists of the MOR Receptor using an Image-Based Assay - Set 3. [Related pubchem assays (depositor defined):AID1777, AID1785, AID1786, AID1966, AID2133, AID2136, AID2284, AID2285, AID2420]; assay type: functional
[1] = biological target: Delta-type opioid receptor (Homo sapiens, UniProt P41143); test: SAR Analysis of Antagonists of the DOR Receptor using an Image-Based Assay - Set 3. [Related pubchem assays (depositor defined):AID1777, AID1785]; assay type: functional;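 also: U2OS cells expressing DOR1 and beta-arrestin GFP stimulated with 100 nM SNC80; imaging of GFP-tagged beta-arrestin moving into spots after receptor activation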
[2] = biological target: T1, Kappa-type opioid receptor (Homo sapiens, UniProt P41145); test: SAR analysis of small molecule antagonists of the kappa opioid receptor via a luminescent beta-arrestin assay - Set 3. [Related pubchem assays (depositor defined):AID1777, AID1778, AID1785, AID1786, AID1966, AID2133, AID2136, AID2285, AID2495]; assay type: functional
T1 sequence (P41145 whole entry): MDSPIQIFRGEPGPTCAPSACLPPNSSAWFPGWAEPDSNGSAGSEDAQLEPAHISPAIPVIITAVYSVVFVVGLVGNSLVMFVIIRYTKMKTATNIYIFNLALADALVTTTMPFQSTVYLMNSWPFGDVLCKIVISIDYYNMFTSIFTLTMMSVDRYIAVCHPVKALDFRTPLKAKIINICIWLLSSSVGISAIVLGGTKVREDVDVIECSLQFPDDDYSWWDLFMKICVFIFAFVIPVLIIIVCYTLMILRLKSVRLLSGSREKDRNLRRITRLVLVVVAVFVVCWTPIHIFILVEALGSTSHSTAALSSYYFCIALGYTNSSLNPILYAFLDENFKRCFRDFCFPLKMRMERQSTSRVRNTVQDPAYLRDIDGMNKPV

[3] = biological target: T1, Kappa-type opioid receptor; test: SAR analysis of Antagonists of the Kappa Opioid Receptor (KOR) using an Image-Based Assay - Set 4. [Related pubchem assays (depositor defined):AID1777, AID1785]; assay type: functional
Cannabinoid receptor 2 [4] = biological target: T2, Cannabinoid receptor 2 (Homo sapiens, UniProt P34972); test: SAR analysis of antagonists of the Cannabinoid Receptor 2 using an Image-Based Assay - Set 2. [Related pubchem assays (depositor defined):AID1961, AID1965]; assay type: functional
T2 sequence (P34972 whole entry): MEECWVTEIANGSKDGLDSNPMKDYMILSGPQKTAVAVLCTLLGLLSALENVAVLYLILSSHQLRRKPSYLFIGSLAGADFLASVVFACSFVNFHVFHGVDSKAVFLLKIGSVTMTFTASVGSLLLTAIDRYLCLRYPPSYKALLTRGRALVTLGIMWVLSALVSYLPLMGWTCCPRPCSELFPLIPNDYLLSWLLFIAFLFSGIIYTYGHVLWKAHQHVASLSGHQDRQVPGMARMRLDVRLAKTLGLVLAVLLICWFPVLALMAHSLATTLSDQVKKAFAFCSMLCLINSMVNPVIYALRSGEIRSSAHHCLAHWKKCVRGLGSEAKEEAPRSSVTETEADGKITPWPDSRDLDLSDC

[5] = biological target: G-protein coupled receptor 55 (Homo sapiens, UniProt Q9Y2T6); test: SAR analysis of selective Agonists of GPR55 using an Image-Based Assay - Set 2. [Related pubchem assays (depositor defined):AID1961, AID1965]; assay type: functional
Sequence of G-protein coupled receptor 55 (Q9Y2T6 whole entry): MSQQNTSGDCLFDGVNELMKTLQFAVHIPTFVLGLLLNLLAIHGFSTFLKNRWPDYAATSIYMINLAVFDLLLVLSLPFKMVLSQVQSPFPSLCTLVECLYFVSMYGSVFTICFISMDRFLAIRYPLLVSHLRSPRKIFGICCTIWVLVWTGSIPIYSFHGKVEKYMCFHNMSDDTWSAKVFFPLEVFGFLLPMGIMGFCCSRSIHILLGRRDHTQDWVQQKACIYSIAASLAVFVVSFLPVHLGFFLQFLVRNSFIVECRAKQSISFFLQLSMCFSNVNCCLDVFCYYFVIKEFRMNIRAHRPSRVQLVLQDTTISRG

Cannabinoid receptor 2 [6] = biological target: T2, Cannabinoid receptor 2; test: SAR analysis of agonists of the Cannabinoid Receptor 2 using an Image-Based Assay - Set 2. [Related pubchem assays (depositor defined):AID1961, AID1965]; assay type: functional
[7] = biological target: T3, G-protein coupled receptor 35 (Homo sapiens, UniProt Q9HC97); test: SAR analysis of Agonists of the GPR35 Receptor using an Image-Based Assay - Set 3. [Related pubchem assays (depositor defined):AID1961, AID1965]; assay type: functional
T3 sequence (Q9HC97 whole entry): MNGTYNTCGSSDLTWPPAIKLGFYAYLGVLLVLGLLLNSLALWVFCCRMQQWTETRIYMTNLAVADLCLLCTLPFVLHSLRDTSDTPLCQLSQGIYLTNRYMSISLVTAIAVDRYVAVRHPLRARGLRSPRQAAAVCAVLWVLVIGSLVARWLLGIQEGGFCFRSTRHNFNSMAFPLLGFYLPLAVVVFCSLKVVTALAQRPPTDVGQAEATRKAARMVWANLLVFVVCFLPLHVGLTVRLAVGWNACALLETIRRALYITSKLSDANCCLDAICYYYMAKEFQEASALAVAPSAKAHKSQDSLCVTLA

Cannabinoid receptor 1 [8] = biological target: T4, Cannabinoid receptor 1 (Homo sapiens, UniProt P21554); test: SAR analysis of antagonists of the Cannabinoid Receptor 1 using an Image-Based Assay - Set 3. [Related pubchem assays (depositor defined):AID1961, AID1965]; assay type: functional
T4 sequence (P21554 whole entry): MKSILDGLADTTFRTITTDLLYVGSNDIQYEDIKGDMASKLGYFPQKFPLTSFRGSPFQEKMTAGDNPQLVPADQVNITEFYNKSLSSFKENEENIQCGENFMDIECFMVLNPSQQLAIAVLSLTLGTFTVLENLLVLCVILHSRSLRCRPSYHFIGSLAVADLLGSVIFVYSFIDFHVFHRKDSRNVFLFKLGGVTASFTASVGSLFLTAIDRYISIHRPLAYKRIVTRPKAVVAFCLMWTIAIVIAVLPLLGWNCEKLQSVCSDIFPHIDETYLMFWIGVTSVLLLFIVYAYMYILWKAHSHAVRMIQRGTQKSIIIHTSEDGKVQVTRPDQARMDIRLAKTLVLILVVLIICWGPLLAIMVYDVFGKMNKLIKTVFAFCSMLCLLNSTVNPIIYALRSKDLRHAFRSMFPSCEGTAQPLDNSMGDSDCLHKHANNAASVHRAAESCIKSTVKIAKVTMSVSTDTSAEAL

Cannabinoid receptor 1 [9] = biological target: T4, Cannabinoid receptor 1; test: SAR analysis of agonists of the Cannabinoid Receptor 1 using an Image-Based Assay - Set 3. [Related pubchem assays (depositor defined):AID1961, AID1965]; assay type: functional
[10] = biological target: T3, G-protein coupled receptor 35; test: SAR analysis of Antagonists of the GPR35 Receptor using an Image-Based Assay - Set 4. [Related pubchem assays (depositor defined):[…]]; assay type: functional
HEK293 [11] = test: inhibition of NOD1-driven NF-kB reporter – cell-based, luminescence, uHTS, primary screen (AID 1578); assay type: functional; conditions: Homo sapiens
HEK293 [12] = test: cells; assay type: functional, cell-based; conditions: Homo sapiens
HEK293 [13] = test: cells; assay type: functional, cell-based; conditions: Homo sapiens; remark: listed apart in the source
Ion channel NompC = Ion channel NompC (Danio rerio, UniProt Q7T1G6); test: Dose response cell-based high-throughput screening assay for agonists of the transient receptor potential channel N1 (TRPN1). [Related pubchem assays (depositor defined):AID1424, AID1448]; assay type: functional
Sequence of Ion channel NompC (Q7T1G6 whole entry): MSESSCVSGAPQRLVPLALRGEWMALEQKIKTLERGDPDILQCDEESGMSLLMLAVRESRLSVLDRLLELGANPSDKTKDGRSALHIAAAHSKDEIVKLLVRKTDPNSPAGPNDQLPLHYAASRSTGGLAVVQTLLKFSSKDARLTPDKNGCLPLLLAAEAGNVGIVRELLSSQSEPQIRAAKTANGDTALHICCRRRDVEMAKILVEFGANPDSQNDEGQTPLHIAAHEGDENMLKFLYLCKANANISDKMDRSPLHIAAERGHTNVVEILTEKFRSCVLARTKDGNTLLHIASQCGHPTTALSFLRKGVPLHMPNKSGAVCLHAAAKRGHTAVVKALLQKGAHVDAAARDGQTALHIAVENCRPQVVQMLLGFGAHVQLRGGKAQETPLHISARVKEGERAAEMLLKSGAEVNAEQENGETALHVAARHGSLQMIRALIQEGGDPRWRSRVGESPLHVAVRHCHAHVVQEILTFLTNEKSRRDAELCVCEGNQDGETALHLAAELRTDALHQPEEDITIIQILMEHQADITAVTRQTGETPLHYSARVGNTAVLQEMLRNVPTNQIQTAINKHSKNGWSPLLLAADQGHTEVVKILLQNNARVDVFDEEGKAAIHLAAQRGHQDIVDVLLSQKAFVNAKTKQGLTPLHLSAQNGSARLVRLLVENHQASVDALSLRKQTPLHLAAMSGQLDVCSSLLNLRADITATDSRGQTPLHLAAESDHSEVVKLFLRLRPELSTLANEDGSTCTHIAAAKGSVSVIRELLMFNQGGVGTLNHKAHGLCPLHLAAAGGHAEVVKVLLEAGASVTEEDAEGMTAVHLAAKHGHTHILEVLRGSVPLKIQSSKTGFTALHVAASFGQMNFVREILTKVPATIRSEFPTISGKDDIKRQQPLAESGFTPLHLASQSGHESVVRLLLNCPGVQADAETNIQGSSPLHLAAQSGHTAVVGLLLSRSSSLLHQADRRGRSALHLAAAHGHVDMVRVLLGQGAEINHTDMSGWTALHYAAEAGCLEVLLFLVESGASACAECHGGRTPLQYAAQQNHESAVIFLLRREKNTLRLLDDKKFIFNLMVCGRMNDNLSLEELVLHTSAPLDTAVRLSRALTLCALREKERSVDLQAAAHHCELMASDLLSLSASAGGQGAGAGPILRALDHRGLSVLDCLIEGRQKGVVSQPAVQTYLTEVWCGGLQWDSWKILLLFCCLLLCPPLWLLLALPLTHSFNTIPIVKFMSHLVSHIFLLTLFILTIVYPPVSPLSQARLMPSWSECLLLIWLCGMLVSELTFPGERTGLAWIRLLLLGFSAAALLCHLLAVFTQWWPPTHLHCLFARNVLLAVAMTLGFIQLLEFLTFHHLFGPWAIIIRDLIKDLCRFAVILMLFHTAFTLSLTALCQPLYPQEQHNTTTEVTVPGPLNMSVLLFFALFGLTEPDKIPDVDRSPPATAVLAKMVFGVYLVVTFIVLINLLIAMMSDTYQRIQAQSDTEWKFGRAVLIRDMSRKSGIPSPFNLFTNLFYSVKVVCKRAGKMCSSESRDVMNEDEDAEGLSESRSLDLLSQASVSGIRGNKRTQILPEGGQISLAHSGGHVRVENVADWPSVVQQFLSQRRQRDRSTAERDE

HEK293 [14] = test: NOD2 signaling inhibitors in MDP-stimulated cells, cell-based, uHTS, luminescence (AID 2001); assay type: functional; conditions: Homo sapiens
[15] = Trypanosoma cruzi growth suppression in host cells – NIH3T3 host cells, beta-gal luminescence, confirmation (AID 2044); assay type: functional, cell-based;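 also: intracellular parasites grown in NIH/3T3 mouse fibroblasts as host cells; luminescent beta-galactosidase reporter signal from transgenic T. cruzi replicating inside host cells; inhibitors lower the luminescence signal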
Mucolipin-3 = Mucolipin-3 (Homo sapiens, UniProt Q8TDD5); test: Fluorescence counterscreen assay for […] agonists: dose response cell-based high-throughput screening assay to identify agonists of the transient receptor potential channel ML3 (TRPML3). [Related pubchem assays: 1424, 1448 ]; assay type: functional
Sequence of Mucolipin-3 (Q8TDD5 whole entry): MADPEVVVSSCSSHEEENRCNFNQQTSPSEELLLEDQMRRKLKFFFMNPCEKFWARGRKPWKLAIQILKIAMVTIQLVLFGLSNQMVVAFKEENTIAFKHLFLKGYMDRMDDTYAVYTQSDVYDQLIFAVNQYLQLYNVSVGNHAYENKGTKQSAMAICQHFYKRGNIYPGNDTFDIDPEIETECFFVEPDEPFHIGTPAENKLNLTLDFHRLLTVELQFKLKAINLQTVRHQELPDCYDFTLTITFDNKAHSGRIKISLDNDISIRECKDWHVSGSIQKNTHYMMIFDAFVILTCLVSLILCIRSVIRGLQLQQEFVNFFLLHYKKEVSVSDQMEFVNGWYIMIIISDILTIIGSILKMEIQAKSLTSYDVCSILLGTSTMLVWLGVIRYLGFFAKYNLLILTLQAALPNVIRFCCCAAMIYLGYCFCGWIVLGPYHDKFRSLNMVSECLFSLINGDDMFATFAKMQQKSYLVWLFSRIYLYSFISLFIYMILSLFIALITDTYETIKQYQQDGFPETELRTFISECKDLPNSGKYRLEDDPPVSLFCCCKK

[16] = biological target: T5, Calpain-2 catalytic subunit (Sus scrofa, UniProt P43367); test: m-calpain protease blockers, concentration series – biochemical, fluorogenic peptide substrate, dose response (AID 1420); assay type: functional
T5 sequence (P43367 whole entry): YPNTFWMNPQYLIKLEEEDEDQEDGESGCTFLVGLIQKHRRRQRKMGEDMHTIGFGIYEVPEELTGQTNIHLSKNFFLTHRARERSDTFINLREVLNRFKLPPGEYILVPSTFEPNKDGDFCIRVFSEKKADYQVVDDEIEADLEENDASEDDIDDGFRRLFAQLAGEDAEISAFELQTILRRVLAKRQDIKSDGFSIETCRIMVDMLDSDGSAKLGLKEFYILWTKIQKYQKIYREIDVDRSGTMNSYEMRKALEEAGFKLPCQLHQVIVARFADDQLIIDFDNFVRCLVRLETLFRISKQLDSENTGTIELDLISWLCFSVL

[17] = NIH3T3 cell viability loss – ATP luminescence, mouse fibroblasts, counter-screen, dose response (AID 2010); assay type: functional, cell-based;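 also: cells exposed to compound for about 90 hours before reading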
cells [18] = assay type: functional, cell-based
cells [19] = assay type: functional, cell-based; remark: listed apart in the source
Integrin alpha-L = Integrin alpha-L (Mus musculus, UniProt P24063); test: modulators of CD8 T cell-vesicle binding, dose response, powder samples, mouse 2C CD8+ cells (AID 504565); assay type: functional
T-cell = test: loss of vesicle association with mouse CD8+ T cells – mouse 2C CD8+ T cells, flow cytometry, dose response (AID 485284); assay type: functional
[20] = biological target: T6, E3 ubiquitin-protein ligase XIAP (Homo sapiens, UniProt P98170); test: Counter Screen using XIAP-Bir3 for Chemical Antagonists of Bir1/2 domains of IAP-family anti-apoptotic proteins. [Related pubchem assays (depositor defined):AID1018, AID1449, AID1514, AID1638, AID1749, AID1750, AID488957, AID488963]
T6 sequence (P98170 whole entry): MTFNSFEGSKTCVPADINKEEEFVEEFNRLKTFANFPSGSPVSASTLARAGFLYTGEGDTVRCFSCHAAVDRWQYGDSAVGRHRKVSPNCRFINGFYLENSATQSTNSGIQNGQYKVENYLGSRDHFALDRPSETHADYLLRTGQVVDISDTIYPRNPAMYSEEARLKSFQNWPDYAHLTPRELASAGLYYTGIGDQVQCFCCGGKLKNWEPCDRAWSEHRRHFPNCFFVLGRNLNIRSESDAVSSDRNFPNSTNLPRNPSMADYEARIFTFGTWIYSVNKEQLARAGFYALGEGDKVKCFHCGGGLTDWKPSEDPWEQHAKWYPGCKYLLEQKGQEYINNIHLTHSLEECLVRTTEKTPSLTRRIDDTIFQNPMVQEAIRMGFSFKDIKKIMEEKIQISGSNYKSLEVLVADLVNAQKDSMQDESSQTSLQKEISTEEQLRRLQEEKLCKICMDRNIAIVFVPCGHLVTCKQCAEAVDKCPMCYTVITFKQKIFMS

[21] = biological target: T6, E3 ubiquitin-protein ligase XIAP; test: small molecules displacing peptide from XIAP – biochemical, IAP family, fluorescence polarization (AID 1018); assay type: functional

Sequence of Mu-type opioid receptor (P35372 whole entry): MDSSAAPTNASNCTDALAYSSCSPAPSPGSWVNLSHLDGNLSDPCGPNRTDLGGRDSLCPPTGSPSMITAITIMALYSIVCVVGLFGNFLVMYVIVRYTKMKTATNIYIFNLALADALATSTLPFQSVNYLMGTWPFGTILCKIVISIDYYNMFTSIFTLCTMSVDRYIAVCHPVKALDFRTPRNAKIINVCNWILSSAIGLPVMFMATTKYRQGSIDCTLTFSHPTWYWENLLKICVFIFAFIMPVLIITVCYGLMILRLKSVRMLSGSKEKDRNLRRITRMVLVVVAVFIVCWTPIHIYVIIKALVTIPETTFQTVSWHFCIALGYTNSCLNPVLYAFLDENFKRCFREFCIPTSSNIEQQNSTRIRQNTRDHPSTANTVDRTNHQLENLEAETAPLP

With `COc1ccc(N2CCN(CCCNC(=O)Cn3c(=O)c4cccn4c4cccnc43)CC2)c(OC)c1` the IC50 (Mu-type opioid receptor) was 10.8 µM (inactive), the IC50 [1] was > 32 µM (inactive) and the IC50 [2] was 2.65 µM (active). The IC50 [3] was 0.49 µM (active).

For `CN(C)S(=O)(=O)c1ccc(N2CCCC2)c(C(=O)N2CCN(c3cccc(Cl)c3)CC2)c1`, the IC50 (Cannabinoid receptor 2 [4]) was > 32 µM (inactive), the EC50 [5] was 0.608 µM (active) and the EC50 (Cannabinoid receptor 2 [6]) was > 32 µM (inactive). For the same molecule, the EC50 [7] was > 32 µM (inactive), the IC50 (Cannabinoid receptor 1 [8]) was 27.1 µM (inactive) and the EC50 (Cannabinoid receptor 1 [9]) was > 32 µM (inactive). For the same molecule, the IC50 [10] was > 32 µM (inactive).

For `O=C(Cc1ccc(Cl)cc1)Nc1ncc([N+](=O)[O-])s1`, the EC50 (HEK293 [11]) was 4.23 µM (active), the IC50 (HEK293 [12]) was 9.12 µM (active) and the IC50 (HEK293 [13]) was > 20 µM (inactive). The EC50 (Ion channel NompC) was > 29.9 µM (inactive), the IC50 (HEK293 [14]) was 10.9 µM (inactive) and the EC50 [15] was 0.589 µM (active). For the same molecule, the EC50 (Mucolipin-3) was > 29.9 µM (not active), the IC50 [16] was < 0.4 µM (not active) and the EC50 [17] was > 60 µM (inconclusive).

With `CCOCC(=O)Nc1ccc(S(=O)(=O)N2CCC(c3nc4ccccc4[nH]3)CC2)cc1` the EC50 (cells [18]) was > 350 µM (not active), the EC50 (cells [19]) was > 350 µM (not active) and the EC50 (Integrin alpha-L) was 0.246 µM (active). The EC50 (T-cell) was 1.37 µM (active).

For `COc1cc(C(=O)O)cc(NC(=O)c2cccs2)c1OC`, the IC50 [20] was > 100 µM (inactive) and the IC50 [21] was > 100 µM (not active).
